Data taken from patent US20120283096A1, “AGENT FOR IMPROVING PLANT GROWTH, SEEDS, AND METHOD FOR IMPROVING PLANT GROWTH” (Incorporated Administrative Agency National Agricu lture …, priority 2010, published 2012).
Where two headings read alike, the source gives them in different places.

Legend:
[1] = in water, powder, cited from earlier work
paddy seeds = experiment: Possibility of growth of paddy seeds in tank farming without soil (Example 3)
Procedure: (§1) The decay-inhibiting effect of molybdenum-containing substances in tank farming without soil was examined.
(§2) The possibility of growth and the inhibition of decay were determined in the same manner as above.

decay of paddy seeds = experiment: Decay-inhibiting effect in tank farming without soil (Example 3); conditions: for Inhibition of decay, Amount of molybdenum or tungsten added to seed: seeds covered with substance, soaked two weeks in water at 30° C.; for Soaking: Inhibition of decay, Concentration of Molybdenum in Solution: paddy seeds left soaked two weeks in the solution at 30° C., no soil, water did not rot, no rotten smell; for Ten-minute soaking: Inhibition of decay, Concentration of Molybdenum in Solution: seeds soaked ten minutes in the solution, then two weeks in water at 30° C.
Procedure: as §1, §2

paddy rice [2] = experiment: Seedling establishment of coated paddy seeds in submerged soil containers (Examples 4-1 to 4-4b, FIGS. 11, 14-19c); assay type: in vivo; conditions: dry seeds, 25 wt % calcium peroxide alone at 0.1 or less time the weight of dry seed, 30° C., FIG. 19c
Procedure: The germinated paddy seeds were soaked for one minute in a tenfold diluted solution of a commercially available laundry starch (manufactured by Rocket Soap Co., Ltd.; My Laundry Starch) containing approximately a little less than 10% by weight of polyvinyl alcohol, centrifuged at 1000 rpm for removal of the extra solution, and, immediately after that, lightly covered with different amounts of ammonium molybdophosphate, whereby seeds with different amounts of ammonium molybdophosphate were prepared.
(§3) It should also be noted that in each of FIGS. 14 through 15b, the horizontal axis represents the number of moles (mmol) of molybdenum or tungsten that adhered per gram of dry seed. In each of FIGS. 14 through 15b, the dots correspond to the numbers of moles of 0, 0.02, 0.05, 0.1, 0.2, 0.5, 1, and 2 mmol, starting from the left.
as §3, with “should” for “should also”, “16” for “14”, “18,” for “15b,”, “molybdenum” for “molybdenum or tungsten”
It should be noted that in FIG. 19a, the horizontal axis represents the number of moles (mmol) of molybdenum that adhered per gram of dry seed. In FIG. 19a, the dots correspond to the numbers of moles of 0, 0.02, 0.05, 0.1, 0.2, 0.5, 1, and 2 mmol, starting from the left.
The resulting seeds were allowed to spend time in a sufficiently wet condition so that the iron rusted, and then allowed to further spend overnight. […] Six containers were allotted for each condition, and the proportion of seedling establishment and the standard error were examined. It should be noted that in FIG. 19b, the horizontal axis represents the number of moles (mmol) of molybdenum that adhered per gram of dry seed. In FIG. 19b, the dots correspond to the numbers of moles of 0, 0.02, 0.05, 0.1, 0.2, 0.5, 1, and 2 mmol, starting from the left.
Six containers were allotted for each condition, and the proportion of seedling establishment and the standard error were examined. It should be noted that in FIG. 19c, the horizontal axis represents the actual weight ratios of 25 wt % calcium peroxide that adhered with respect to the weight of dry seed. In FIG. 19c, the dots correspond to the actual weight ratios of 25 wt % calcium peroxide of 0, 0.01, 0.02, 0.05, 0.1, 0.2, 0.5, and 1 time, starting from the left.

sulfide ions = experiment: Inhibiting effect of molybdenum added to soil on sulfide ions (Example 1-3, FIG. 4); conditions: supernatant after shaking soil, 30° C., two weeks after seeding
Procedure: An inhibiting effect of a molybdenum-containing substance on sulfide ions was examined in relation to the degrees of generation of ferric sulfide in soil and the concentrations of molybdenum in soil solutions, and the results are shown in FIG. 4. The results shown in FIG. 4 were obtained from samples obtained in the same manner as in Example 1-2. Since methylene blue decolorizes in a reduced state, methylene blue weighing 0.1% of dry soil was added to each sample of soil so that a reduced state of the soil could be detected. The supernatant liquids obtained after shaking the samples of soil thus adjusted had molybdenum concentrations shown in FIG. 4.

sulfide ion generation = experiment: Inhibition of sulfide ion generation, paddy seeds covered with slightly-soluble substances (Example 2-3, FIG. 9); conditions: approximately 0.1 mmol/g (per dry seeds) in terms of molybdenum or tungsten
Source text: The water on slightly germinated seeds was lightly wiped off, and immediately after that, the seeds were put with (lightly covered with) various amounts of the slightly-soluble substances shown in Table 1. […] The number of days for which sulfide ion generation was inhibited and the proportion of seedling establishment were examined.

paddy rice [3] = experiment: Seedling establishment of paddy seeds soaked in solutions of readily-soluble molybdenum substances (Example 2-2, FIGS. 8 and 13); assay type: in vivo
Procedure: The examination of the proportion of seedling establishment was carried out under the same conditions as the examination whose results are shown in FIG. 8, except for the molybdenum concentration and the duration of soaking.

[4] = paddy seeds left soaked two weeks in the solution at 30° C., no soil, concentration at which sheath leaf elongation was observed
[5] = seeds soaked ten minutes in the solution, then two weeks in water at 30° C.
[6] = seeds covered with substance, soaked two weeks in water at 30° C.
[7] = 3 M molybdenum solution, one-minute soaking, FIG. 13

Compound: [Mg+2].[O]=[Mo](=[O])([O-])[O-] [Magnesium molybdate]
- Water solubility [1]: Slightly soluble (has a percentage of solubility of 10% by weight or lower with respect to water)
- Water solubility ([1]; listed as magnesium molybdate): slightly soluble

Compound: [O]=[W](=[O])([OH])[OH] [Tungstic acid]
- Possibility of growth, Amount of molybdenum or tungsten added to seed (paddy seeds; in vivo): > 1 mmol/g
- Inhibition of decay, Amount of molybdenum or tungsten added to seed (decay of paddy seeds): 1< mmol g^−1
- Water solubility [1]: Slightly soluble (has a percentage of solubility of 10% by weight or lower with respect to water)

Compound: O.O.[Na+].[Na+].[O]=[Mo](=[O])([O-])[O-] [Sodium molybdate, Sodium molybdate dihydrate]
- Soaking: Possibility of growth, Concentration of Molybdenum in Solution (paddy seeds; [4]): 0.03 M
- Ten-minute soaking: Possibility of growth, Concentration of Molybdenum in Solution (paddy seeds; [5]): 1< M
- Soaking: Inhibition of decay, Concentration of Molybdenum in Solution (decay of paddy seeds): 0.1 M
- Ten-minute soaking: Inhibition of decay, Concentration of Molybdenum in Solution (decay of paddy seeds): 0.3 M
- Water solubility ([1]; dihydrate): Readily soluble
- Water solubility ([1]; listed as sodium molybdate, dihydrate): readily soluble

Compound: [Ca+2].[O-][O-] [calcium peroxide, reference compound]
- proportion of seedling establishment (paddy rice [2]): ≤ 20%

Compound: Ammonium molybdate tetrahydrate
- Soaking: Inhibition of decay, Concentration of Molybdenum in Solution (decay of paddy seeds): <0.02 M
- Ten-minute soaking: Inhibition of decay, Concentration of Molybdenum in Solution (decay of paddy seeds): 0.1 M

Compound: [K+].[K+].[O]=[Mo](=[O])([O-])[O-] [Potassium molybdate]
- molybdenum concentration at which sulfide ions were effectively inhibited (sulfide ions): ≥ 0.2 mM
- molybdenum concentration up to which black circles were observed in the soil (sulfide ions): ≤ 0.06 mM
- Soaking: Possibility of growth, Concentration of Molybdenum in Solution (paddy seeds; [4]): 0.02 M
- Ten-minute soaking: Possibility of growth, Concentration of Molybdenum in Solution (paddy seeds; [5]): 1< M
- Soaking: Inhibition of decay, Concentration of Molybdenum in Solution (decay of paddy seeds): 0.3 M
- Ten-minute soaking: Inhibition of decay, Concentration of Molybdenum in Solution (decay of paddy seeds): 0.5 M
- Water solubility [1]: Readily soluble
- Water solubility ([1]; listed as potassium molybdate): readily soluble

Compound: [Ca+2].[O]=[Mo](=[O])([O-])[O-] [Calcium molybdate]
- Possibility of growth, Amount of molybdenum or tungsten added to seed (paddy seeds; [6]): 1 mmol/g
- Inhibition of decay, Amount of molybdenum or tungsten added to seed (decay of paddy seeds): 0.3 mmol/g

Compound: [H+].[H+].[NH4+].[NH4+].[NH4+].[NH4+].[NH4+].[NH4+].[NH4+].[NH4+].[NH4+].[NH4+].[O]=[W](=[O])([O-])[O-].[O]=[W](=[O])([O-])[O-].[O]=[W](=[O])([O-])[O-].[O]=[W](=[O])([O-])[O-].[O]=[W](=[O])([O-])[O-].[O]=[W](=[O])([O-])[O-].[O]=[W](=[O])=[O].[O]=[W](=[O])=[O].[O]=[W](=[O])=[O].[O]=[W](=[O])=[O].[O]=[W](=[O])=[O].[O]=[W](=[O])=[O] [Ammonium paratungstate, Ammonium tungstate parapentahydrate]
- Possibility of growth, Amount of molybdenum or tungsten added to seed (paddy seeds; [6]): 0.3 mmol/g
- Inhibition of decay, Amount of molybdenum or tungsten added to seed (decay of paddy seeds): <0.3 mmol/g
- Water solubility [1]: Slightly soluble (has a percentage of solubility of 10% by weight or lower with respect to water)

Compound: [O]=[Mo](=[O])([OH])[OH] [Molybdic acid]
- number of days for which sulfide ion generation was inhibited (sulfide ion generation): fourteen
- Possibility of growth, Amount of molybdenum or tungsten added to seed (paddy seeds; in vivo): > 2 mmol/g
- Inhibition of decay, Amount of molybdenum or tungsten added to seed (decay of paddy seeds): <0.02 mmol/g
- Water solubility [1]: Slightly soluble (has a percentage of solubility of 10% by weight or lower with respect to water)
- Water solubility ([1]; listed as molybdic acid): slightly soluble

Compound: Ammonium phosphotungstate trihydrate [Ammonium tungstophosphate]
- Possibility of growth, Amount of molybdenum or tungsten added to seed (paddy seeds; in vivo): > 1 mmol/g
- Inhibition of decay, Amount of molybdenum or tungsten added to seed (decay of paddy seeds): 1< mmol g^−1

Compound: [O]=[W](=[O])=[O] [Tungsten oxide, Tungsten oxide (VI)]
- number of days for which sulfide ion generation was inhibited (sulfide ion generation): fourteen
- Possibility of growth, Amount of molybdenum or tungsten added to seed (paddy seeds; in vivo): > 1 mmol/g
- Inhibition of decay, Amount of molybdenum or tungsten added to seed (decay of paddy seeds): 1< mmol g^−1
- Water solubility [1]: Slightly soluble (has a percentage of solubility of 10% by weight or lower with respect to water)

Compound: Potassium phosphomolybdate [Potassium molybdophosphate]
- Water solubility [1]: Slightly soluble (has a percentage of solubility of 10% by weight or lower with respect to water)
- Water solubility ([1]; listed as potassium molybdophosphate): slightly soluble

Compound: Sodium phosphomolybdate n-hydrate [Sodium molybdophosphate]
- molybdenum concentration of the soaking solution at which proportion of seedling establishment improved (paddy rice [3]; ten-minute soaking, FIG. 8): approximately 1 M
- proportion of seedling establishment (paddy rice [3]; ten-minute soaking, soaking solution 2 M molybdenum): decrease in proportion of seedling establishment
- Soaking: Possibility of growth, Concentration of Molybdenum in Solution (paddy seeds; in vivo): <0.02 M
- Ten-minute soaking: Possibility of growth, Concentration of Molybdenum in Solution (paddy seeds; in vivo): > 1 M
- Soaking: Inhibition of decay, Concentration of Molybdenum in Solution (decay of paddy seeds): <0.02 M
- Ten-minute soaking: Inhibition of decay, Concentration of Molybdenum in Solution (decay of paddy seeds): 0.1 M
- Water solubility [1]: Readily soluble
- Water solubility ([1]; listed as sodium molybdophosphate): readily soluble

Compound: 12-moblybdo(VI)phosphoric acid n-hydrate [Molybdophosphoric acid]
- proportion of seedling establishment (paddy rice [3]; [7]): improvement in proportion of seedling establishment
- Soaking: Inhibition of decay, Concentration of Molybdenum in Solution (decay of paddy seeds): <0.02 M
- Ten-minute soaking: Inhibition of decay, Concentration of Molybdenum in Solution (decay of paddy seeds): 0.1 M

Compound: Silicomolybdic acid n-hydrate [Molybdosilicic acid]
- proportion of seedling establishment (paddy rice [3]; [7]): improvement in proportion of seedling establishment
- Water solubility [1]: Readily soluble
- Water solubility ([1]; listed as molybdosilicic acid): readily soluble
